Data on 4 compounds can be found in patent publication US5760072A, “Paclitaxel prodrugs, method for preparation as well as their use in selective chemotherapy” (Pharmachemie B.V., priority 1995, dated 1998).

Counter-ions that a name gives are not always drawn.

The conditions of data set [1]: K. C. Nicolaou et al., Nature, 1993, 364, 464-466; cited from earlier work.
The target in data set [2] is T1, human β-glucuronidase (Homo sapiens, UniProt P08236).
T1 construct: lysosomal homotetramer
T1 sequence (P08236 23-651): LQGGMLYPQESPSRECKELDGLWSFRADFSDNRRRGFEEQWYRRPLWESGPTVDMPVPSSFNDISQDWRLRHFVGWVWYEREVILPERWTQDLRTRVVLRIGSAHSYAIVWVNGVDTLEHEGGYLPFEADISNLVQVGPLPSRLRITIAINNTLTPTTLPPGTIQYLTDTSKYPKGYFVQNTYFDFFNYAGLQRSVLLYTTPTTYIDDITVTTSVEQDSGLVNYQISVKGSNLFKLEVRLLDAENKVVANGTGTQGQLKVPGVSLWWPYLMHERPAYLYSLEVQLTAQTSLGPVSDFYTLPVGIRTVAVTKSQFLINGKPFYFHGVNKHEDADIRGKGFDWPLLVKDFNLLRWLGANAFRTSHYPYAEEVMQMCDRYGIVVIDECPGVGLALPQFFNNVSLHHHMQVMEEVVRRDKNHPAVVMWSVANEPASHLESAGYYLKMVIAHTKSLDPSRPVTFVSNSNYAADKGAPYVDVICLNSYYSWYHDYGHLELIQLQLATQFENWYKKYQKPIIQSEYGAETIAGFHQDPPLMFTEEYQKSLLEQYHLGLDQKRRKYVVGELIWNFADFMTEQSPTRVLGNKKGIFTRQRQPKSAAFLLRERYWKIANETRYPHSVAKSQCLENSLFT
Put plainly: Enzyme catalyzed hydrolysis of prodrug by human β-glucuronidase, HPLC. Format: biochemical. As to conditions: for ratio prodrug/paclitaxel: 37° C., pH=6.8, HPLC peak areas; for intermediates (spacer attached to paclitaxel, compounds 5 and 7b) during enzyme catalyzed hydrolysis / enzymatic hydrolysis rate / paclitaxel found in experiment without human β-glucuronidase: in words; for enzymatic hydrolysis rate: appropriate enzyme; for paclitaxel found in experiment without human β-glucuronidase: no enzyme, PBS pH=6.8, 37° C., up to 180 min; for half life of hydrolysis by β-glucuronidase: prodrug 100 μM, enzyme 10 μg mL^-1. Here is the method: To 140 μL PBS buffer (pH=6.8) was added 20 μL of a 1 mM solution of prodrug 1 in PBS buffer (pH=6.8) and 20 μL of 1% bovine serum albumin also in PBS buffer (pH=6.8). After incubation of the mixture for 10 min. at 37° C. 20 μL of a solution of 0.1 mg mL^-1 human β-glucuronidase (H. J. Haisma, Hybridoma, in press) was added. Directly after the addition of the enzyme to the reaction mixture an aliquot of 10 μL was taken and diluted with 90 μL cold acetonitrile (-20° C.) in order to stop the enzyme reaction. The reaction mixture was incubated for 3 hr at 37° C. and samples were taken at 15, 30, 45, 60, 90, 120 and 180 min. All samples were quenched by dilution with cold acetonitrile (-20° C.). […] In the later experiment also samples of 10 μL were taken at 0, 15, 30, 45, 60, 90, 120 and 180 min and were also diluted with cold acetonitrile (-20° C.). The samples of both experiments were analyzed by HPLC (C^18 reverse phase column, eluent: gradient of 10% acetonitrile in water to 90% acetonitrile in water, detection at 226 nm). The ratio of prodrug 1 to paclitaxel as shown in table 1 is determined by measuring the peak areas of the appropriate signals. […] All experiments were carried out in duplo.
20 μL of 1 mM solution of prodrug 2b in PBS buffer (pH=6.8) and 20 μL 1% bovine serum albumin also in PBS buffer (pH=6.8) was added to 140 μL PBS buffer (pH=6.8). Subsequently, the mixture was incubated for 10 min. at 37° C. whereafter 20 μL of a solution of 0.1 mg mL^-1 human β-glucuronidase (H. J. Haisma, Hybridoma, in press) was added and the reaction mixture was incubated at 37° C. Samples were taken and quenched at 0, 15, 30, 45, 60, 90, 120 and 180 min as described above for the enzyme assay of prodrug 1. In order to determine that the hydrolysis was caused by β-glucuronidase, another experiment was carried out without addition of β-glucuronidase as described above in example 7. The samples were analyzed as described for example 7 (vide supra). The ratios presented in table 2, are based on peak areas of the appropriate signals. […] All experiment were carried out in duplo.

Data set [3] concerns OVCAR-3 cells. In words: In vitro cytotoxicity (anti-proliferative effect) with excess human β-glucuronidase, sulforhodamine B protein dye stain. Format: cell-based. As to conditions: OVCAR-3, with β-glucuronidase. As to the method: (§1) The anti-proliferative effects of paclitaxel, and the prodrugs 1, 2a and 2b on OVCAR-3 cells were determined by measuring the cell growth with a protein dye stain (H. J. Haisma et al. Cell Biophysics 1994, 24/25, 185-192). Cells were seeded in 96-well tissue culture plates (5000 cells/well) and 24 h later (pro)drugs 1, 2a, 2b or 3 were added with or without excess human β-glucuronidase. After 72 hours the cells were fixed with 25% trichloroacetic acid, stained with 0.4% sulforhodamine B, washed with 1% acetic acid and air-dried. The bound dye was then solubilized with 10 mM Tris and the absorbance read at 492 nm. The antiproliferative effects were expressed as IC50 values, which are the (pro)drug concentrations that gave 50% growth inhibition when compared to control cell growth.
For orientation: In SRB staining, fixed cells bind dye roughly in proportion to their protein.

Data set [4] in a line: Stability assay in PBS buffer pH 6.8, 37° C., HPLC. The data set is classed as physicochemical. As to conditions: for ratio of prodrug/paclitaxel: PBS pH=6.8, 37° C., HPLC peak areas; for stability in PBS buffer: in words, PBS pH=6.8. Here is the method: The prodrugs in examples 1 and 2b were all stable in PBS buffer (PBS buffer=NaCl (8 g/L), KCl (0.2 g/L), Na2 HPO4 (1.15 g/L), KH2 PO4 (0.2 g/L), pH=6.8, see example 4 and 5).
To 3.0 mL PBS buffer, pH=6.8, was added 0.37 mg of prodrug 2b (0.30 μmol). The mixture was placed in a water bath of 37° C. […] The ratios are based on peak areas.
In 1.1 mL PBS buffer, pH=6.8, was dissolved 0.13 mg of prodrug 2a (0.11 μmol) and placed in a water bath of 37° C. […] The ratios are based on peak areas.

The test system of data set [5] is OVCAR-3 cells. In words: In vitro cytotoxicity (anti-proliferative effect) without β-glucuronidase, sulforhodamine B protein dye stain. Format: cell-based. As to conditions: for ratio IC50 prodrug/IC50 paclitaxel: OVCAR-3, without β-glucuronidase; for cytotoxicity compared with parent drug paclitaxel: in words. Here is the method: as §1
Data set [6] in a line: Solubility in water. The data set is classed as physicochemical. As to conditions: for solubility in water compared with parent drug paclitaxel: in words; for solubility: water, read-out: Concentrations reached in water. Here is the method:
Concentrations of 10 mM in water and higher were reached whereas the solubility of paclitaxel is lower as […] in water (K. C. Nicolaou et al., Nature, 1993, 364, 464-466).

With `CC(=O)O[C@H]1C(=O)[C@@]2(C)[C@H]([C@H](OC(=O)c3ccccc3)[C@]3(O)C[C@H](OC(=O)[C@H](O)[C@@H](NC(=O)c4ccccc4)c4ccccc4)C(C)=C1C3(C)C)[C@]1(OC(C)=O)CO[C@@H]1C[C@@H]2O` [paclitaxel], the solubility in water in data set [1] was below 5 nM.
`CC(=O)O[C@H]1C(=O)[C@@]2(C)[C@H]([C@H](OC(=O)c3ccccc3)[C@]3(O)C[C@H](OC(=O)[C@H](OC(=O)CC(C)(C)CNC(=O)O[C@@H]4O[C@H](C(=O)O)[C@@H](O)[C@H](O)[C@H]4O)[C@@H](NC(=O)c4ccccc4)c4ccccc4)C(C)=C1C3(C)C)[C@]1(OC(C)=O)CO[C@@H]1C[C@@H]2O` [Prodrug 1, N-[paclitaxel-2'-O-3,3-dimethyl butanoate]-O-[β-glucuronyl] carbamate sodium salt]: the ratio prodrug/paclitaxel in data set [2] (0 min) is 99/1; in data set [2] (15 min), 95/5; in data set [2] (30 min), 93/7; in data set [2] (45 min), 87/13; in data set [2] (60 min) it was 78/22; in data set [2] (90 min) it was 61/39. Also, the ratio prodrug/paclitaxel in data set [2] (120 min) is 43/57; in data set [2] (180 min), 33/67. Also, the “intermediates (spacer attached to paclitaxel, compounds 5 and 7b) during enzyme catalyzed hydrolysis” value in data set [2] is on record as “no intermediates”. The enzymatic hydrolysis rate entry in data set [2] is given as “quite fast hydrolyzing rates”. Moreover, the “paclitaxel found in experiment without human β-glucuronidase” value in data set [2] was “no paclitaxel was found”. In addition, in data set [2], the “half life of hydrolysis by β-glucuronidase” value is listed as “about 2 hr”. The “ratio IC50 activated prodrug with β-glucronidase/IC50 paclitaxel” value (“ratio IC50 activated prodrug” for short) in data set [3] is listed as 3. Moreover, the ratio of prodrug/paclitaxel in data set [4] (48 hr) is reported as 92/8. The “stability in PBS buffer” value in data set [4] was “stable”. Besides, the “ratio IC50 prodrug/IC50 paclitaxel” value in data set [5] amounted to 90. Further, the “cytotoxicity compared with parent drug paclitaxel” value in data set [5] was “less cytotoxic as the parent drug”. Moreover, the “solubility in water compared with parent drug paclitaxel” value in data set [6] is “far more better soluble in water as the parent drug paclitaxel”. Also, the solubility in data set [6] is at least 10 mM.
Turning to `CC(=O)O[C@H]1C(=O)[C@@]2(C)[C@H]([C@H](OC(=O)c3ccccc3)[C@]3(O)C[C@H](OC(=O)[C@H](OC(=O)CCc4ccccc4NC(=O)O[C@@H]4O[C@H](C(=O)O)[C@@H](O)[C@H](O)[C@H]4O)[C@@H](NC(=O)c4ccccc4)c4ccccc4)C(C)=C1C3(C)C)[C@]1(OC(C)=O)CO[C@@H]1C[C@@H]2O` [Prodrug 2b, N-[paclitaxel-2'-O-(2-amino)phenylpropionate]-O-[β-glucuronyl] carbamate sodium salt], the ratio prodrug/paclitaxel in data set [2] (0 min) is given as 99/1; in data set [2] (15 min) it was 87/13; in data set [2] (30 min) it was 74/26; in data set [2] (45 min), 55/45; in data set [2] (60 min) it was 41/59; in data set [2] (90 min) it was 24/76. The ratio prodrug/paclitaxel in data set [2] (120 min) is recorded as 20/80; in data set [2] (180 min) it was 15/85. The “intermediates (spacer attached to paclitaxel, compounds 5 and 7b) during enzyme catalyzed hydrolysis” value in data set [2] is recorded as “no intermediates”. Besides, the enzymatic hydrolysis rate entry in data set [2] is given as “quite fast hydrolyzing rates”. Further, the “paclitaxel found in experiment without human β-glucuronidase” value in data set [2] is reported as “no paclitaxel was found”. Further, the “half life of hydrolysis by β-glucuronidase” value in data set [2] is on record as “about 45 min”. For the same compound, the “ratio IC50 activated prodrug” value in data set [3] stood at 5. Further, the ratio of prodrug/paclitaxel is recorded as 92/8 in data set [4] (48 hr) and 89/11 in data set [4] (66 hr). The “stability in PBS buffer” value in data set [4] is “stable”. Further, the “ratio IC50 prodrug/IC50 paclitaxel” value in data set [5] was found to be 122. Further, the “cytotoxicity compared with parent drug paclitaxel” value in data set [5] is “less cytotoxic as the parent drug”. For the same compound, the “solubility in water compared with parent drug paclitaxel” value in data set [6] is “far more better soluble in water as the parent drug paclitaxel”. For the same compound, the solubility in data set [6] was at least 10 mM.
Turning to `CC(=O)O[C@H]1C(=O)[C@@]2(C)[C@H]([C@H](OC(=O)c3ccccc3)[C@]3(O)C[C@H](OC(=O)[C@H](OC(=O)Cc4ccccc4NC(=O)O[C@@H]4O[C@H](C(=O)O)[C@@H](O)[C@H](O)[C@H]4O)[C@@H](NC(=O)c4ccccc4)c4ccccc4)C(C)=C1C3(C)C)[C@]1(OC(C)=O)CO[C@@H]1C[C@@H]2O` [Prodrug 2a, N-[paclitaxel-2'-O-(2-amino) phenylacetate]-O-[β-glucuronyl] carbamate sodium salt], the “ratio IC50 activated prodrug” value in data set [3] is 1. The ratio of prodrug/paclitaxel in data set [4] (3 hr) is listed as 55/45. Moreover, the ratio of prodrug/paclitaxel in data set [4] (22 hr) is 1/99. For the same compound, the “stability in PBS buffer” value in data set [4] is reported as “not stable”. In addition, the half-life in data set [4] (pbs buffer, pH 6.8, read-out: half time of decomposition to paclitaxel (converted)) is 3 h. For the same compound, in data set [5], the “ratio IC50 prodrug/IC50 paclitaxel” value is 1 and the “cytotoxicity compared with parent drug paclitaxel” value is listed as “about as cytotoxic as paclitaxel”. For the same compound, in data set [6], the “solubility in water compared with parent drug paclitaxel” value is “far more better soluble in water as the parent drug paclitaxel” and the solubility is at least 10 mM.
